Each structure is given as a SMILES string.

One assay deals with Aphis craccivora. Briefly: Insecticidal activity against Aphis craccivora (cowpea aphid) assessed as mortality at 15.625 ug/mL measured after 1 day. The format is functional. Conditions: 24 h.
As a reminder, the mortality is the percentage killed. Regarding `O=[N+]([O-])/C=C1\NCCN1Cc1ccc(Cl)nc1`, the mortality at 15.625 µg/mL was 60%.

The test system of the next assay is Aphis craccivora. Briefly: Insecticidal activity against Aphis craccivora (cowpea aphid) assessed as mortality at 62.5 ug/mL measured after 1 day. It counts as functional. Conditions: 24 h.
For `O=[N+]([O-])/C=C1\NCCN1Cc1ccc(Cl)nc1`, the mortality at 62.5 µg/mL worked out at 94%.

A further assay relates to Aphis craccivora. Briefly: Insecticidal activity against Aphis craccivora (cowpea aphid) assessed as mortality at 125 ug/mL measured after 1 day. It counts as functional. Conditions: 24 h.
For the compound `CC(C)N1CC([N+](=O)[O-])=C2N(CC3CCCC3N2Cc2ccc(Cl)nc2)C1` (stereo not given), the mortality at 125 µg/mL worked out at 56%.

A further assay concerns Aphis craccivora. In words: Insecticidal activity against Aphis craccivora (cowpea aphid) assessed as mortality at 450 ug/mL measured after 1 day. The format is functional. Conditions: 24 h.
For `CC(C)N1CC([N+](=O)[O-])=C2N(CC3CCCC3N2Cc2ccc(Cl)nc2)C1` (stereo not given), the mortality at 450 µg/mL was 88%.

The next assay concerns Aphis craccivora. Briefly: Insecticidal activity against Aphis craccivora (cowpea aphid) assessed as mortality at 500 ug/mL measured after 1 day. The format is functional. The note with it: 24 h.
In the case of `O=[N+]([O-])/C=C1\NC2CCCC2CN1Cc1ccc(Cl)nc1` (stereo not given), the mortality at 500 µg/mL is under 59%.

Take `CC1CCC2CN/C(=C\[N+](=O)[O-])N(Cc3ccc(Cl)nc3)C12` (stereo not given): the mortality at 500 µg/mL came to 51%.

Take `O=[N+]([O-])C1=C2N(CC3CCCC3N2Cc2ccc(Cl)nc2)CN(CCO)C1` (stereo not given): the mortality at 500 µg/mL was found to be 60%.

Consider `CS/C(=N\C#N)NCC1CCCC1NCc1ccc(Cl)nc1` (stereo not given), for which the mortality at 500 µg/mL is 34%.

`CCCCN1CC([N+](=O)[O-])=C2N(CC3CCCC3N2Cc2ccc(Cl)nc2)C1` (stereo not given): the mortality at 500 µg/mL was determined as 32%.

Regarding `CN1CC([N+](=O)[O-])=C2N(CC3CCCC3N2Cc2ccc(Cl)nc2)C1` (stereo not given), the mortality at 500 µg/mL was found to be 54%.

On to `O=[N+]([O-])/C=C1\NCC2CCCC2N1Cc1cccnc1` (stereo not given), for which the mortality at 500 µg/mL turned out to be 82%.

As for `O=[N+]([O-])/C=C1\NCC2CCCC2N1Cc1ccc(Cl)nc1` (stereo not given), the mortality at 500 µg/mL stood at 83%.

Regarding `CCN1CC([N+](=O)[O-])=C2N(CC3CCCC3N2Cc2ccc(Cl)nc2)C1` (stereo not given), the mortality at 500 µg/mL was 90%.

Consider `N#C/N=C1\NCC2CCCC2N1Cc1ccc(Cl)nc1` (stereo not given), for which the mortality at 500 µg/mL worked out at 38%.

Turning to `CCCN1CC([N+](=O)[O-])=C2N(CC3CCCC3N2Cc2ccc(Cl)nc2)C1` (stereo not given), the mortality at 500 µg/mL was determined as 61%.

Values taken from ChEMBL document CHEMBL3046059, “Syntheses and biological activities of octahydro-1H-cyclopenta[d]pyrimidine derivatives” (2007).
